# Measured values published in ChEMBL document CHEMBL3045984, “Resistance to HPPD-inhibiting herbicides in a population of waterhemp (Amaranthus tuberculatus) from Illinois, United States” (2011).
# Columns and labels:
# Assay type in all cases: functional
# Amaranthus tuberculatus [1] = assay: Herbicidal activity against Amaranthus tuberculatus biotype MCR 15 assessed as visual injury at 105 g/ha applied as spray after 21 days under green house conditions relative to untreated control
# Amaranthus tuberculatus [2] = assay: Herbicidal activity against Amaranthus tuberculatus biotype ACR assessed as decrease in shoot dry weight at 105 g/ha applied as spray during post-emergence after 21 days under green house conditions relative to untreated control; parameters: scale not given: the % may be the effect or the level left
# Amaranthus tuberculatus [3] = assay: Herbicidal activity against Amaranthus tuberculatus biotype MCR 12 assessed as visual injury at 105 g/ha applied as spray after 21 days under green house conditions relative to untreated control
# Amaranthus tuberculatus [4] = assay: Herbicidal activity against Amaranthus tuberculatus biotype ACR assessed as visual injury at 105 g/ha applied as spray after 21 days under green house conditions relative to untreated control
# Amaranthus tuberculatus [5] = assay: Herbicidal activity against Amaranthus tuberculatus biotype WCS assessed as decrease in shoot dry weight applied as spray after 21 days under green house conditions
# Amaranthus tuberculatus [6] = assay: Herbicidal activity against Amaranthus tuberculatus biotype MCR assessed as decrease in shoot dry weight applied as spray after 21 days under green house conditions
# Amaranthus tuberculatus [7] = assay: Herbicidal activity against Amaranthus tuberculatus biotype WCS assessed as visual injury at 105 g/ha applied as spray after 21 days under green house conditions relative to untreated control
# Amaranthus tuberculatus [8] = assay: Herbicidal activity against Amaranthus tuberculatus biotype WCS assessed as decrease in shoot dry weight at 105 g/ha applied as spray during post-emergence after 21 days under green house conditions relative to untreated control; parameters: scale not given: the % may be the effect or the level left
# Amaranthus tuberculatus [9] = assay: Herbicidal activity against Amaranthus tuberculatus biotype MCR 16 assessed as visual injury at 105 g/ha applied as spray after 7 days under green house conditions relative to untreated control
# Amaranthus tuberculatus [10] = assay: Herbicidal activity against Amaranthus tuberculatus biotype MCR 12 assessed as visual injury at 105 g/ha applied as spray after 14 days under green house conditions relative to untreated control
# Amaranthus tuberculatus [11] = assay: Herbicidal activity against Amaranthus tuberculatus biotype WCS assessed as visual injury at 105 g/ha applied as spray after 14 days under green house conditions relative to untreated control
# Amaranthus tuberculatus [12] = assay: Herbicidal activity against Amaranthus tuberculatus biotype ACR assessed as visual injury at 315 g/ha applied as spray after 21 days under green house conditions relative to untreated control
# Amaranthus tuberculatus [13] = assay: Herbicidal activity against Amaranthus tuberculatus biotype MCR assessed as decrease in shoot dry weight at 105 g/ha applied as spray during post-emergence after 21 days under green house conditions relative to untreated control; parameters: scale not given: the % may be the effect or the level left
# Amaranthus tuberculatus [14] = assay: Herbicidal activity against Amaranthus tuberculatus biotype MCR assessed as mortality at 315 g/ha applied as spray after 21 days under green house conditions relative to untreated control; details: 504 h
# Amaranthus tuberculatus [15] = assay: Herbicidal activity against Amaranthus tuberculatus biotype ACR assessed as decrease in shoot dry weight applied as spray after 21 days under green house conditions
# Amaranthus tuberculatus [16] = assay: Herbicidal activity against Amaranthus tuberculatus biotype MCR 12 assessed as visual injury at 105 g/ha applied as spray after 7 days under green house conditions relative to untreated control
# Amaranthus tuberculatus [17] = assay: Herbicidal activity against Amaranthus tuberculatus biotype WCS assessed as visual injury at 105 g/ha after 7 days applied as spray under green house conditions relative to untreated control
# Amaranthus tuberculatus [18] = assay: Herbicidal activity against Amaranthus tuberculatus biotype MCR 15 assessed as visual injury at 105 g/ha applied as spray after 14 days under green house conditions relative to untreated control
# Amaranthus tuberculatus [19] = assay: Herbicidal activity against Amaranthus tuberculatus biotype ACR assessed as visual injury at 105 g/ha applied as spray after 7 days under green house conditions relative to untreated control
# Amaranthus tuberculatus [20] = assay: Herbicidal activity against Amaranthus tuberculatus biotype MCR assessed as mortality at 105 g/ha applied as spray after 21 days under green house conditions relative to untreated control; details: 504 h
# Amaranthus tuberculatus [21] = assay: Herbicidal activity against Amaranthus tuberculatus biotype WCS assessed as visual injury at 315 g/ha applied as spray after 21 days under green house conditions relative to untreated control
# Amaranthus tuberculatus [22] = assay: Herbicidal activity against Amaranthus tuberculatus biotype MCR 16 assessed as visual injury at 105 g/ha applied as spray after 21 days under green house conditions relative to untreated control
# Amaranthus tuberculatus [23] = assay: Herbicidal activity against Amaranthus tuberculatus biotype MCR 15 assessed as visual injury at 105 g/ha applied as spray after 7 days under green house conditions relative to untreated control
# Amaranthus tuberculatus [24] = assay: Herbicidal activity against Amaranthus tuberculatus biotype ACR assessed as visual injury at 105 g/ha applied as spray after 14 days under green house conditions relative to untreated control
# Amaranthus tuberculatus [25] = assay: Herbicidal activity against Amaranthus tuberculatus biotype MCR 16 assessed as visual injury at 105 g/ha applied as spray after 14 days under green house conditions relative to untreated control
structure (smiles),measurement,setting,value
CS(=O)(=O)c1ccc(C(=O)C2C(=O)CCCC2=O)c([N+](=O)[O-])c1 [MESOTRIONE],Activity,Amaranthus tuberculatus [1],26%
same,Activity,Amaranthus tuberculatus [2],>90%
same,Activity,Amaranthus tuberculatus [3],13%
same,Activity,Amaranthus tuberculatus [4],88%
same,GR50,Amaranthus tuberculatus [5],1.4 g/ha
same,GR50,Amaranthus tuberculatus [6],48.5 g/ha
same,Activity,Amaranthus tuberculatus [7],100%
same,Activity,Amaranthus tuberculatus [8],>90%
same,Activity,Amaranthus tuberculatus [9],48%
same,Activity,Amaranthus tuberculatus [10],24%
same,Activity,Amaranthus tuberculatus [11],96%
same,Activity,Amaranthus tuberculatus [12],100%
same,Activity,Amaranthus tuberculatus [13],60%
same,mortality at 315 g/ha,Amaranthus tuberculatus [14],33%
same,GR50,Amaranthus tuberculatus [15],4.9 g/ha
same,Activity,Amaranthus tuberculatus [16],40%
same,Activity,Amaranthus tuberculatus [17],85%
same,Activity,Amaranthus tuberculatus [18],36%
same,Activity,Amaranthus tuberculatus [19],63%
same,mortality at 105 g/ha,Amaranthus tuberculatus [20],0%
same,Activity,Amaranthus tuberculatus [21],100%
same,Activity,Amaranthus tuberculatus [22],27%
same,Activity,Amaranthus tuberculatus [23],37%
same,Activity,Amaranthus tuberculatus [24],90%
same,Activity,Amaranthus tuberculatus [25],45%
